The target of assay [1] is T1, human RORγ (Homo sapiens, UniProt P51449).
T1 construct: human RORγ, from Ser253 to Lys518; expressed in transfected cells; host or cells: CHO cells (Chinese hamster ovary), transient co-transfection with pG5-Luc
T1 sequence (P51449 253-518): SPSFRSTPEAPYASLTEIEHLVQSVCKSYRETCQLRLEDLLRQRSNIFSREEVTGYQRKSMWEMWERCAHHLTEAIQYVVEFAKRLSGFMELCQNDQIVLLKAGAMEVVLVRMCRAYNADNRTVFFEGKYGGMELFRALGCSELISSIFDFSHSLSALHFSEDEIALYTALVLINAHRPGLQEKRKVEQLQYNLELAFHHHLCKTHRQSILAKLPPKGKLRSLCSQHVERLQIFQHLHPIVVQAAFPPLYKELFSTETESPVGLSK
Briefly: In vitro assay of inhibitory effect against RORγ transcriptional activity (GAL4-hRORγ LBD luciferase reporter gene assay in CHO cells). Format: cell-based. The settings on record: for hRORγ luciferase activity, %-of-control: vehicle-control 0.2% DMSO alone = 100%. A digest of the protocol: (§1)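 Luciferase signal, expressed relative to 0.2% DMSO vehicle as 100%, was the read-out after a 2-day compound exposure of CHO cells co-expressing a GAL4-RORγ LBD fusion and a GAL4-responsive reporter. EC50 values came from curve fitting, omitting points showing cytotoxicity.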

Assay [2] addresses T2, mouse RORγ (Mus musculus, UniProt P51450).
T2 construct: mouse RORγ, from Ile251 to Lys516; expressed in transfected cells; host or cells: CHO cells (Chinese hamster ovary), transient co-transfection with pG5-Luc
T2 sequence (P51450 251-516): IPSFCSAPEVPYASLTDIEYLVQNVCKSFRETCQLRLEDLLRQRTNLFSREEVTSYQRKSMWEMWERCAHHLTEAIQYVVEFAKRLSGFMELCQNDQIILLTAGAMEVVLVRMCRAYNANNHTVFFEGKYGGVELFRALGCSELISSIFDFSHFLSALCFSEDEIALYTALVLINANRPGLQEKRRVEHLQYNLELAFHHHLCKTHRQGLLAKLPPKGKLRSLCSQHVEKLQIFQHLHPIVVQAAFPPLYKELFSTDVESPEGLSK
The experiment in a line: In vitro assay of inhibitory effect against RORγ transcriptional activity (GAL4-mRORγ LBD luciferase reporter gene assay in CHO cells). The assay is classed as cell-based. The following applies: for mRORγ luciferase activity, %-of-control: vehicle-control 0.2% DMSO alone = 100%. Summed up: as §1

Setting [3] is: GAL4-hRORγ LBD / pG5-Luc in CHO cells, 2 days incubation.
Where [4] appears, read: GAL4-mRORγ LBD / pG5-Luc in CHO cells, 2 days incubation.
The mark [5] stands for this setting: GAL4-hRORγ LBD luciferase reporter, CHO cells, read-out: LUC EC50 hRORγ.
The mark [6] stands for this setting: GAL4-mRORγ LBD luciferase reporter, CHO cells, read-out: LUC EC50 mRORγ.
Setting [7] is: value in parentheses beside the > EC50 bound.
Where [8] appears, read: value in parentheses beside the EC50 bound.

Read-outs that look alike come from different tables or passages of the source.

For `CC(C)C1=CN(CCC(=O)O)C(=O)N[C@@]1(C)c1ccc(CCC(C)(C)C)c(Cl)c1` [Example 87, 3-{(S)-4-[3-Chloro-4-(3,3-dimethyl-butyl)-phenyl]-5-isopropyl-4-methyl-2-oxo-3,4-dihydro-2H-pyrimidin-1-yl}-propionic Acid], the EC50 (as a rule, the concentration that produces a half-maximal response) in assay [1] (setting [3]) was determined as 11 nM; in assay [2] (setting [4]), 15 nM.
Consider `CC(C)(C)CCc1ccc([C@]2(C)NC(=O)N(CC3CC(F)(F)C3)C=C2[C@H]2C[C@@H](C(=O)O)C2)cc1Cl` [Example 248], for which the EC50 in assay [1] (setting [5]) came out at 10 nM; in assay [2] (setting [6]), 21 nM.
On to `C[C@@]1(c2ccc(OCCC3CCC3)c(Cl)c2)NC(=O)N(C23CC(C(=O)O)(C2)C3)C=C1C1CC(F)(F)C1` [Example 357], for which the EC50 was found to be 34 nM in assay [1] (setting [5]) and 29 nM in assay [2] (setting [6]).
In the case of `CC(C)C1=CN(CCC(=O)O)C(=O)N[C@]1(C)c1ccc(CCc2ccccc2)c(Cl)c1` [Example 143], the EC50 in assay [1] (setting [3]) and in assay [2] (setting [4]) was over 8000 nM each time. In addition, in assay [1] (setting [7]), the “hRORγ luciferase activity, %-of-control” value is listed as “(90%)”. Moreover, the “mRORγ luciferase activity, %-of-control” value in assay [2] (setting [7]) was “(100%)”.
As to `CCCCc1ccc(C2(C)NC(=O)N(CCCC(=O)O)C=C2C(C)C)cc1F` (racemic) [Example 70], the EC50 in assay [1] (setting [3]) turned out to be 251 nM; in assay [2] (setting [4]), 133 nM.
With `CC(C)C1=CN(C23CCC(C(=O)O)(CC2)C3)C(=O)N[C@@]1(C)c1ccc(CCC(C)(C)C)c(Cl)c1` [Example 269], the EC50 came to 19 nM in assay [1] (setting [5]) and 23 nM in assay [2] (setting [6]).
As to `CC(C)C1=CN(C23CCC(C(=O)O)(C2)C3)C(=O)N[C@@]1(C)c1ccc(CCC(C)(C)C)c(C(F)(F)F)c1` [Example 314], the EC50 in assay [1] (setting [5]) is 38 nM; in assay [2] (setting [6]) it was 32 nM.
Regarding `CC(C)(C)CCc1ccc([C@]2(C)NC(=O)N(CCCC(=O)O)C=C2C2(C)CC2)cc1Cl` [Example 52], the EC50 in assay [1] (setting [3]) amounted to 10 nM; in assay [2] (setting [4]) it was 15 nM.
In the case of `COC(=O)[C@H]1C[C@H](N2C=C([C@H]3C[C@@H](CO)C3)[C@](C)(c3ccc(CCC(C)(C)C)c(Cl)c3)NC2=O)C1` (single isomer, unassigned) [Example 312], the EC50 was 248 nM in assay [1] (setting [5]) and 538 nM in assay [2] (setting [6]).
Take `CC(C)C1=CN(CC(C)C(=O)O)C(=O)N[C@@]1(C)c1ccc(CCC(C)(C)C)c(Cl)c1` (single isomer, unassigned) [Example 300]: the EC50 is 10 nM in assay [1] (setting [5]) and 14 nM in assay [2] (setting [6]).
With `CC(C)(C)CCc1ccc(C2(C)NC(=O)N([C@H]3C[C@H](CO)C3)C=C2C(C)(C)CCC(=O)O)cc1Cl` (single isomer, unassigned) [Example 182], the EC50 in assay [1] (setting [3]) amounted to 27 nM; in assay [2] (setting [4]), 76 nM.
For `CCC1=CN(CCCC(=O)O)C(=O)N[C@@]1(C)c1ccc(CCC(C)(C)C)c(Cl)c1` [Example 69] the same measures were 20 nM and 17 nM.
As to `CC(C)(C)CCc1ccc([C@@]2(C)NC(=O)N(CCCC(=O)O)C=C2C2CC2)cc1Cl` [Example 56], the EC50 in assay [1] (setting [3]) is 5160 nM; in assay [2] (setting [4]), 4290 nM.
For `CC(C)C1=CN(CCC(=O)O)C(=O)N[C@@]1(C)c1cc(F)c(CCC(C)(C)C)c(Cl)c1` [Example 175] the same measures were 9 nM and 12 nM.
For the compound `CC(C)C1=CN(CCC(=O)O)C(=O)N[C@@]1(C)c1ccc(CCC2(F)CCCC2)c(Cl)c1` [Example 301], the EC50 in assay [1] (setting [5]) was 27 nM; in assay [2] (setting [6]) it was 10 nM.
`COC(=O)[C@H]1C[C@H](N2C=C(C(C)(C)CCCO)[C@@](C)(c3ccc(CCC(C)(C)C)c(Cl)c3)NC2=O)C1` (single isomer, unassigned) [Example 190]: the EC50 in assay [1] (setting [5]) and in assay [2] (setting [6]) was over 8000 nM in each case. Moreover, the “hRORγ luciferase activity, %-of-control” value in assay [1] (setting [8]) is “(74%)”. Besides, the “mRORγ luciferase activity, %-of-control” value in assay [2] (setting [8]) is “(66%)”.
As for `CC(C)C1=CN(CCC(=O)O)C(=O)N[C@@]1(C)c1ccc(CC(O)C(C)(C)C)c(Cl)c1` (single isomer, unassigned) [Example 310], the EC50 in assay [1] (setting [5]) worked out at 476 nM; in assay [2] (setting [6]), 277 nM.

Source of the values: patent US10196363B2, “Dihydropyrimidin-2-one compounds and medical use thereof” (JAPAN TOBACCO INC., priority 2014, dated 2019).
